In patent publication US20140187556A1, “ANTI-AMYLOID COMPOUNDS AND METHODS” (Treventis Corporation, priority 2011, published 2014):

The compounds below were run against T1, Aβ40 (Homo sapiens, UniProt P05067) (assay: Thioflavin T (ThT) Aβ aggregation assay). Conditions: 20 μM Aβ40, 37 degrees C.
T1 construct: pre-treated Aβ40 (40 μM in 20 mM Tris, pH 7.4)
Format: biochemical
Description: Aβ40 (1.0 mg) was pre-treated in a 1.5 mL microfuge tube with HFIP (1 mL) and sonicated for 20 min to disassemble any pre-formed Aβ aggregates. The HFIP was removed with a stream of argon and the Aβ dissolved in Tris base (5.8 mL, 20 mM, pH ˜10). The pH was adjusted to 7.4 with concentrated HCl (−10 μL) and the solution filtered using a syringe filter (0.2 μm) before being used.
The kinetic ThT assay for Aβ aggregation is similar to that of Chalifour et al (Chalifour et al, 2003, J. Biol. Chem. 278:34874-81). Briefly, pre-treated Aβ40 (40 μM in 20 mM Tris, pH 7.4), was diluted with an equal volume of 8 μM ThT in Tris (20 mM, pH 7.4, 300 mM NaCl). Aliquots of Aβ/ThT (200 μL) were added to wells of a black polystyrene 96-well plate, followed by 2 μL of a compound in DMSO (variable concentration), or DMSO alone (controls). Incubations were performed in triplicate and were taken to contain 20 μM Aβ, various concentration of compound in 20 mM Tris, pH 7.4, 150 mM NaCl, 1% DMSO. Plates were covered with clear polystyrene lids and incubated at 37 degrees C. in a Tecan Genios microplate reader. Fluorescence readings (λex=450 nm, λem=480 nm) were taken every 15 min., after first shaking at high intensity for 15 s and allowing to settle for 10 s before each reading. Active compounds attenuated the increase in fluorescence over time that occurred in controls.

T1 sequence (P05067 672-711 limits assumed): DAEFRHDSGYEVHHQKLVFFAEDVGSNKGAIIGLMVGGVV

| SMILES | IC50 |
| --- | --- |
| CNC(=O)c1cccc(-c2ccc([N+](=O)[O-])c(NCc3ccccc3)c2)c1 [TRV 1101, 3′-(benzylamino)-N-methyl-4′-nitrobiphenyl-3-carboxamide] | > 50 µM |
| NC(=O)c1cccc(-c2ccc([N+](=O)[O-])c(NCc3ccccc3)c2)c1 [TRV 1103, 3′-(benzylamino)-4′-nitrobiphenyl-3-carboxamide] | 10.5 ± 0.75 µM |
| O=C(c1cccc(-c2ccc([N+](=O)[O-])c(NCc3ccccc3)c2)c1)N1CCOCC1 [TRV 1113, (3′-(benzyl amino)-4′-nitrobiphenyl-3-yl)(morpholino)methanone] | > 50 µM |
| CC(=O)N1CCN(C(=O)c2cccc(-c3ccc([N+](=O)[O-])c(NCc4ccccc4)c3)c2)CC1 [TRV 1114, 1-(4-(3′-(benzylamino)-4′-nitrobiphenylcarbonyl)piperazin-1-yl)ethanone] | > 50 µM |
| CCNC(=O)c1cccc(-c2ccc([N+](=O)[O-])c(NCc3ccccc3)c2)c1 [TRV 1116, 3′-(benzylamino)-N-ethyl-4′-nitrobiphenyl-3-carboxamide] | > 50 µM |
| CN(Cc1ccccc1)C(=O)c1cccc(-c2ccc([N+](=O)[O-])c(NCc3ccccc3)c2)c1 [TRV 1118, N-benzyl-3′-(benzylamino)-N-methyl-4′-nitrobiphenyl-3-carboxamide] | 6.47 ± 4.92 µM |
| CC(=O)c1cccc(-c2ccc([N+](=O)[O-])c(NCc3ccccc3)c2)c1 [TRV 1124, 1-(3′-(benzylamino)-4′-nitrobiphenyl-3-yl)ethanone] | 6.49 ± 2.5 µM |
| O=[N+]([O-])c1ccc(-c2ccccc2-c2nnn[nH]2)cc1NCc1ccccc1 [TRV 1125, N-benzyl-4-nitro-2′-(1H-tetrazol-5-yl)-[1,1′-biphenyl]-3-amine] | 12.5 ± 2.79 µM |
| N#Cc1ccc(-c2cccc(C(=O)O)c2)cc1NCc1ccccc1 [TRV 1128, 3′-(benzylamino)-4′-cyanobiphenyl-3-carboxylic acid] | > 50 µM |
| CCCN(CCC)C(=O)c1cccc(-c2ccc([N+](=O)[O-])c(NCc3ccccc3)c2)c1 [TRV 1130, 3′-(benzylamino)-4′-nitro-N,N-dipropylbiphenyl-3-carboxamide] | > 50 µM |
| O=C(C1CCCN(c2ccc([N+](=O)[O-])c(NCc3ccccc3)c2)C1)N1CCCC1 (stereo not shown) [TRV 1131, (1-(3-(benzylamino)-4-nitrophenyl)piperidin-3-yl)(pyrrolidin-1-yl)methanone] | 27.8 ± 27.6 µM |
| CN(C)C(=O)C1CCCN(c2ccc([N+](=O)[O-])c(NCc3ccccc3)c2)C1 (stereo not shown) [TRV 1132, 1-(3-(benzylamino)-4-nitrophenyl)-N,N-dimethylpiperidine-3-carboxamide] | 11.5 ± 0.29 µM |
| O=C(C1CCN(c2ccc([N+](=O)[O-])c(NCc3ccccc3)c2)CC1)N1CCCC1 [TRV 1133, (1-(3-(benzyl amino)-4-nitrophenyl)piperidin-4-yl)(pyrrolidin-1-yl)methanone] | 17.9 ± 13.3 µM |
| CN(C)C(=O)C1CCN(c2ccc([N+](=O)[O-])c(NCc3ccccc3)c2)CC1 [TRV 1134, 1-(3-(benzylamino)-4-nitrophenyl)-N,N-dimethylpiperidine-4-carboxamide] | 10.7 ± 0.54 µM |
| N#Cc1cccc(-c2ccc([N+](=O)[O-])c(NCc3ccccc3)c2)c1 [TRV 1136, 3′-(benzylamino)-4′-nitrobiphenyl-3-carbonitrile] | > 50 µM |
| O=C(c1ccccc1)N1CCN(c2ccc([N+](=O)[O-])c(N3CCC(N4CCCC4)CC3)c2)CC1 [TRV 1139, (4-(4-nitro-3-(4-(pyrrolidin-1-yl)piperidin-1-yl)phenyl)piperazin-1-yl)(phenyl)methanone] | ~10 µM |
| CN1CCN(c2cc(N3CCN(C(=O)c4ccccc4)CC3)ccc2[N+](=O)[O-])CC1 [TRV 1146, (4-(3-(4-methylpiperazin-1-yl)-4-nitrophenyl)piperazin-1-yl)(phenyl)methanone] | > 10 µM |
| O=[N+]([O-])c1ccc(-c2cccc(C(O)(O)C(F)(F)F)c2)cc1NCc1ccccc1 [TRV 1153, 1-(3′-(benzylamino)-4′-nitro-[1,1′-biphenyl]-3-yl)-2,2,2-trifluoroethane-1,1-diol] | 7.08 ± 0.19 µM |
| CN(c1cc(N2CCN(C(=O)c3ccccc3)CC2)ccc1[N+](=O)[O-])C1CCC1 [TRV 1154, (4-(3-(cyclobutyl(methyl)amino)-4-nitrophenyl)piperazin-1-yl)(phenyl)methanone] | 11.6 ± 1.24 µM |
| O=[N+]([O-])c1ccc(-c2cccc(C(O)C(F)(F)F)c2)cc1N1CCCC1 (stereo not shown) [TRV 1155, 2,2,2-trifluoro-1-(4′-nitro-3′-(pyrrolidin-1-yl)-[1,1′-biphenyl]-3-yl)ethanol] | 6.65 ± 1.97 µM |
| O=C(c1ccccc1)N1CCN(c2cc(F)c(F)c(N3CCCC3)c2)CC1 [TRV 1156, (4-(3,4-difluoro-5-(pyrrolidin-1-yl)phenyl)piperazin-1-yl)(phenyl)methanone] | > 50 µM |
| O=C(c1ccccc1)N1CCN(c2cc(N3CCCC3)cc(C(F)(F)F)c2)CC1 [TRV 1163, phenyl(4-(3-(pyrrolidin-1-yl)-5-(trifluoromethyl)phenyl)piperazin-1-yl)methanone] | > 50 µM |
| O=C(c1ccccc1)N1CCN(c2ccc(-n3cnnn3)c(N3CCCC3)c2)CC1 [TRV 1164, phenyl(4-(3-(pyrrolidin-1-yl)-4-(1H-tetrazol-1-yl)phenyl)piperazin-1-yl)methanone] | > 50 µM |

Second part, the compound after the results:

| IC50 | SMILES |
| --- | --- |
| 31.6 ± 4.8 µM | O=C(c1ccccc1)N1CCN(c2ccc(Cl)c(Nc3ccccc3)c2)CC1 [TRV 1094, (4-(4-chloro-3-(phenylamino)phenyl)piperazin-1-yl)(phenyl)methanone] |
| > 50 µM | O=C(O)c1cccc(-c2ccc(Cl)c(Nc3ccccc3)c2)c1 [TRV 1097, 4′-chloro-3′-(phenylamino)-[1,1′-biphenyl]-3-carboxylic acid] |
| 3.99 ± 3.77 µM | CC1CN(c2ccc([N+](=O)[O-])c(Nc3ccccc3)c2)CC(C)N1C(=O)c1ccccc1 (stereo not shown) [TRV 1098, (2,6-dimethyl-4-(4-nitro-3-(phenyl amino)phenyl)piperazin-1-yl)(phenyl)methanone] |
| 6.12 ± 2.78 µM | CC1CN(c2ccc([N+](=O)[O-])c(Nc3ccccc3)c2)CCN1C(=O)c1ccccc1 (stereo not shown) [TRV 1099, (2-methyl-4-(4-nitro-3-(phenylamino)phenyl)piperazin-1-yl)(phenyl)methanone] |
| 12.4 ± 0.62 µM | CCN(CC)c1cc(N2CCN(C(=O)c3ccccc3)CC2)ccc1[N+](=O)[O-] [TRV 1135, (4-(3-(diethylamino)-4-nitrophenyl)piperazin-1-yl)(phenyl)methanone] |
| ~10 µM | O=C(c1ccccc1)N1CCN(c2ccc([N+](=O)[O-])c(N3CCCCC3)c2)CC1 [TRV 1137, (4-(4-nitro-3-(piperidin-1-yl)phenyl)piperazin-1-yl)(phenyl)methanone] |
| > 10 µM | O=C(c1ccccc1)N1CCN(c2ccc([N+](=O)[O-])c(N3CCOCC3)c2)CC1 [TRV 1138, (4-(3-morpholino-4-nitrophenyl)piperazin-1-yl)(phenyl)methanone] |
| > 10 µM | CC(C)Nc1cc(N2CCN(C(=O)c3ccccc3)CC2)ccc1[N+](=O)[O-] [TRV 1144, (4-(3-(isopropylamino)-4-nitrophenyl)piperazin-1-yl)(phenyl)methanone] |
| > 10 µM | O=C(c1ccccc1)N1CCN(c2ccc([N+](=O)[O-])c(NC3CCC3)c2)CC1 [TRV 1149, (4-(3-(cyclobutylamino)-4-nitrophenyl)piperazin-1-yl)(phenyl)methanone] |
| 16.9 ± 0.52 µM | CC(C)N(C)c1cc(N2CCN(C(=O)c3ccccc3)CC2)ccc1[N+](=O)[O-] [TRV 1152, (4-(3-(isopropyl(methyl)amino)-4-nitrophenyl)piperazin-1-yl)(phenyl)methanone] |
| > 50 µM | CC(C)Nc1ccc(N2CCN(C(=O)c3ccccc3)CC2)cc1N1CCCC1 [TRV 1157, (4-(4-(isopropyl amino)-3-(pyrrolidin-1-yl)phenyl)piperazin-1-yl)(phenyl)methanone] |
| > 50 µM | O=C(c1ccccc1)N1CCN(c2ccc(F)c(NCc3ccccc3)c2)CC1 [TRV 1159, (4-(3-(benzylamino)-4-fluorophenyl)piperazin-1-yl)(phenyl)methanone] |
| > 50 µM | CC(C)Nc1cc(N2CCN(C(=O)c3ccccc3)CC2)ccc1F [TRV 1160, (4-(4-fluoro-3-(isopropylamino)phenyl)piperazin-1-yl)(phenyl)methanone] |
| > 50 µM | O=C(c1ccccc1)N1CCN(c2ccc(F)c(N3CCCC3)c2)CC1 [TRV 1162, (4-(4-fluoro-3-(pyrrolidin-1-yl)phenyl)piperazin-1-yl)(phenyl)methanone] |
| > 50 µM | CC(C)Nc1cc(N2CCN(C(=O)c3ccccc3)CC2)ccc1C(F)(F)F [TRV 1166, (4-(3-(isopropylamino)-4-(trifluoromethyl)phenyl)piperazin-1-yl)(phenyl)methanone] |
| > 50 µM | N#Cc1ccc(N2CCN(C(=O)c3ccccc3)CC2)cc1N1CCCC1 [TRV 1167, 4-(4-benzoylpiperazin-1-yl)-2-(pyrrolidin-1-yl)benzonitrile] |
| > 50 µM | CC(C)Nc1cc(N2CCN(C(=O)c3ccccc3)CC2)ccc1C#N [TRV 1168, 4-(4-benzoylpiperazin-1-yl)-2-(isopropylamino)benzonitrile] |
